# ChEMBL document CHEMBL2331107, “Novel fluorescent risedronates: synthesis, photodynamic inactivation and imaging of Bacillus subtilis” (2013)
# Calls of active or inactive are those of the source. No cut-off for these calls is given here.
# Tests used:
# Bacillus subtilis [1] = assay: Antimicrobial activity against Bacillus subtilis ATCC 6633 assessed as photodynamic inactivation measured as lethality at 10 uM; assay type: functional
# Bacillus subtilis [2] = assay: Antimicrobial activity against Bacillus subtilis ATCC 6633 measured after 24 hrs at 37 degC; assay type: functional; conditions: ATCC 6633, 24 h
SMILES,Activity (Bacillus subtilis [1]),MIC (Bacillus subtilis [2]) [µg/mL]
O=C(O)c1cc2c(ccc3ccccc32)oc1=O,inactive,–
O=C(NCC(O)C[n+]1cccc(CC(O)(P(=O)(O)O)P(=O)(O)O)c1)c1ccccc1 (stereo not drawn),–,> 128
O=C(NCC(O)C[n+]1cccc(CC(O)(P(=O)(O)O)P(=O)(O)O)c1)c1cc2c(ccc3ccccc32)oc1=O (stereo not drawn),47%,> 128
O=C(NCC(O)C[n+]1cccc(CC(O)(P(=O)(O)O)P(=O)(O)O)c1)c1cc2ccccc2oc1=O (stereo not drawn),91%,> 128
O=C(O)c1cc2ccccc2oc1=O,inactive,–
O=C(NCC(O)C[n+]1cccc(CC(O)(P(=O)(O)O)P(=O)(O)O)c1)c1ccccc1O (stereo not drawn),–,> 128
